Data on one compound can be found in US20120053235A1, “Dihydromyricetin as an IKK-beta inhibitor used for treatment of arthritis, cancer and autoimmune conditions, and other diseases or disorders” (HONG KONG BAPTIST UNIVERSITY, priority 2010, published 2012).

Series [1] has as its system p38 kinase phosphorylation. Put plainly: Phosphorylation of MAPKs (Western blot): p38. The class given is cell-based, human. Particulars: PMA plus ionomycin 10 minutes; FIG. 7. The method, then:
(§1) For determination of the phosphorylation of mitogen-activated protein kinases expression, the cells were stimulated by 20 ng/ml PMA plus […] ionomycin for 10 minutes. The whole-cell lysates were prepared by lysing the harvested T cells with lysis buffer (50 mM Tris-HCl, pH 7.5, 250 mM NaCl, 5 mM EDTA, 1 mM DTT, 1% Triton, 50 mM NaF, 1 mM sodium orthovanadate, 0.5 mM PMSF and 1× protease inhibitor mix, Roche).
(§2) Protein concentrations were determined by using Bio-Rad Protein assay. Equal amounts of nuclear proteins or whole-cell lysates were analyzed by 10% SDS-PAGE. After electrophoresis, the proteins were electro-transferred to the nitrocellulose membranes. After proteins were transferred, the membranes were blocked by 5% dried milk for 60 minutes and then washed three times for 5 min in each washing interval with TBS-T. The membranes were incubated with corresponding primary antibodies overnight at 4° C. and then washed with three times with TBS-T. Afterwards, the membranes were incubated again with HRP-conjugated secondary antibodies for 60 minutes. The blots were developed using the ECL.
For orientation: Immunoblotting shows a protein as a band on a membrane.

In series [2] the test system is ear edema induced by dinitrofluorobenzene in male ICR mice. Put plainly: Delay-type hypersensitivity test (DNFB-induced ear edema). The class given is in vivo. The method, then:
Male mice were sensitized through topical application of 20 μl of 0.5% (v/v) dinitrofluorobenzene (DNFB) in acetone onto the shaved abdomen on days 1 and 2. Challenge was then preformed in day 6 by applying DNFB (20 μl, 0.5%, v/v) on the left inner and outer ear surfaces of mice. DMY (at doses of 0.5, 1, 2 mg/ear) and DEX (0.025 mg/ear, Sigma-Aldrich) dissolved in acetone was topically applied (20 μl) to the ears at 2nd, 24th, 48th, and 72nd hour after the challenge. The mice were sacrificed by cervical dislocation, and then the same area of the ears was punched from each animal. Spleens and thymuses were isolated and weighted. The ear edema was calculated according to the differences between the weight of the right and left ears. The control group was treated only with DNFB.

In series [3] the test system is c-Jun nuclear translocation in human T lymphocytes. Nature of the series: c-Jun nuclear translocation assay (Western blot). The series is classed as cell-based. Conditions: pretreated 1 hour, PMA plus ionomycin 120 minutes. The protocol:
For c-Jun and c-Fos nuclear translocation assays, the human T lymphocytes (6×10^6/well) were pretreated with DMY for 1 hour, and then stimulated with 20 ng/ml PMA plus […] ionomycin for 120 minutes. After the cells were harvested and washed with PBS twice, the nuclear proteins of cells were then prepared using NucBuster™ Reagents. Afterwards, the washed cells were re-suspended using 60 μl NucBuster™ Reagent 1 per 30 μl of packed cells and processed twice by vortexing for 15 seconds, and followed by the incubation on ice for 5 minutes and second vortexing for 15 seconds, and finally centrifuged at 16000 g for 5 minutes. The supernatants containing cytoplasmic proteins were discarded; the cell pellets were re-suspended in 45 μl of NucBuster Extraction Reagent 2. The same vortexing, icing, and repeated vortexing steps were repeated once to prepare the nuclear proteins of the cells.
Protein concentrations were determined by using Bio-Rad Protein assay. Equal amounts of nuclear proteins or whole-cell lysates were analyzed by 10% SDS-PAGE. After electrophoresis, the proteins were electro-transferred to the nitrocellulose membranes. […]

The test system of series [4] is JNK phosphorylation. Nature of the series: Phosphorylation of MAPKs (Western blot): JNK. The class given is cell-based, human. Particulars: PMA plus ionomycin 10 minutes; FIG. 7. The protocol: as §1, §2
For series [5], the target named is T1, human recombinant IKK-β (Homo sapiens, UniProt O14920).
T1 sequence (O14920 1-756): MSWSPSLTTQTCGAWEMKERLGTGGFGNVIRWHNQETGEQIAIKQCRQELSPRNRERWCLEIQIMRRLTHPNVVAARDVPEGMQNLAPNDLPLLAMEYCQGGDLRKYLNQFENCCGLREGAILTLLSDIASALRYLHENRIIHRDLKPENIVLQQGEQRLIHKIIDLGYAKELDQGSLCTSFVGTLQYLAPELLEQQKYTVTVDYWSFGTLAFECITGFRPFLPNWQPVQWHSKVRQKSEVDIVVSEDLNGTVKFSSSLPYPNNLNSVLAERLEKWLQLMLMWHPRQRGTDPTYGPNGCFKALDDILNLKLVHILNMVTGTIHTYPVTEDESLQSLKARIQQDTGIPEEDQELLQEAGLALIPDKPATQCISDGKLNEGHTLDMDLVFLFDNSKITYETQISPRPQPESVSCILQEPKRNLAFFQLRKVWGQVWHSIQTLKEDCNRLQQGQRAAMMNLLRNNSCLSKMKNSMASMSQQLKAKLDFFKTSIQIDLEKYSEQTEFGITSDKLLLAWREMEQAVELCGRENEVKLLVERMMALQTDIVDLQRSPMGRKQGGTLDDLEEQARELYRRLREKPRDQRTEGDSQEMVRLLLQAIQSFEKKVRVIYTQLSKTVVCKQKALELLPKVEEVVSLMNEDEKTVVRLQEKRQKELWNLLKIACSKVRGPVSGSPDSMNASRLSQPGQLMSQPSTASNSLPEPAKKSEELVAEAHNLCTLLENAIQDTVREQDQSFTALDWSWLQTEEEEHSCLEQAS
Nature of the series: IKK-β competition assay (dot blot with biotin-DMY). Conditions: 100 μM biotin-DMY, 0, 1 and 5 folds of parental compound; FIG. 5A. The class given is binding. The protocol: 5 ng of human recombinant IKK-β was incubated with 100 μM of the biotin-DMY in the presence of 0, 1, and 5 folds of concentration of its parental compound. The mixture was dropped on the nitrocellulose membranes, and then detected with streptavidin horseradish peroxidase. The binding signal was then detected by using ECL.

The test system of series [6] is NF-κB nuclear translocation in human T lymphocytes. Put plainly: NF-κB nuclear translocation (p65 Western blot of nuclear proteins). Particulars: pretreated 1 hour, 20 ng/ml PMA plus 1 μM ionomycin 120 minutes; FIG. 6A. The series is classed as cell-based. The protocol:
Human T lymphocytes (6×10^6/well) were pretreated with DMY for 1 hour, and subsequently stimulated with 20 ng/ml PMA plus 1 μM ionomycin for 120 minutes. The cells were then harvested and washed with PBS twice. The nuclear proteins of cells were prepared by using NucBuster™ Reagents (Novagen, USA). The washed cells were re-suspended using 60 μl NucBuster™ Reagent for […] of packed cells and processed twice by vortexing for 15 seconds, and followed by incubation on ice for 5 minutes and second vortexing for 15 seconds, and finally centrifuged at 16000 g for 5 minutes. The supernatants containing cytoplasmic protein were harvested, and then the cell pellets were re-suspended in 45 μl of NucBuster Extraction Reagent 2. The same vortexing, icing, and repeated vortexing procedures were repeated once to prepare the nuclear proteins of the cells.
Protein concentrations were determined by using Bio-Rad Protein assay. Equal amounts of nuclear proteins or whole-cell lysates were analyzed by 10% SDS-PAGE. After electrophoresis, the proteins were electro-transferred to the nitrocellulose membranes. After proteins were transferred, the membranes were blocked by 5% dried milk for 60 minutes and then washed three times for 5 min in each washing interval with Tris Buffered Saline with Tween 20 (TBS-T). […]

[7] abbreviates: DTHT mice, topical treatment, FIGS. 9B and C.

With `O=C1c2c(O)cc(O)cc2O[C@H](c2cc(O)c(O)c(O)c2)[C@H]1O` [DMY, dihydromyricetin], the p38 kinase phosphorylation result in series [1] is recorded as “suppressed”. Also, the body weight entry in series [2] (DTHT mice, topical treatment) is “only a small decrease”. Further, in series [2] (setting [7]), the spleen weight entry is reported as “increase” and the thymus weight entry was “increase”. Further, the ear edema result in series [2] (topical, 0.5, 1, 2 mg/ear at 2nd, 24th, 48th, 72nd hour after challenge, FIG. 9A) is “significantly and dose-dependently inhibit the ear edema”. The “nuclear translocation of c-Jun” value in series [3] is given as “suppress nuclear translocation”. In series [4], the JNK phosphorylation result was “suppressed”. For the same compound, the “competition with biotin-DMY for binding to IKK-β” value in series [5] is recorded as “can compete with biotin-DMY”. In addition, the NF-κB nuclear translocation entry in series [6] is listed as “significantly suppressed”.
